From patent US12128260B2, “Pathogen capture using active surface modification” (priority 2020, dated 2024)

Tests used:
[1] = target: SARS-CoV-2 spike protein (Severe acute respiratory syndrome coronavirus 2, UniProt P0DTC2); format: binding
[2] = test system: Human IgG; settings: FIGS. 4A and 4B; all concentration levels that included IgG, starting at 1 μg/ml; compared with high-protein-binding ELISA plates
[3] = test system: IgG; assay: Model protein (IgG) capture on nanocoated facemask pieces, Gel-Code protein staining dye; format: binding; settings: FIG. 7, IgG incubated 30 minutes, PBS wash, colour change, relative to uncoated facemask
Description: FIG. 7 depicts the relative binding of a model protein to pieces of facemasks coated with a different one of three bifunctional silane chemicals as well as to uncoated had hydrophobic controls. With reference to FIG. 7, pairs of pieces of standard facemasks (Machimpex, catalogue #1005-544-988) were nanocoated with one of the various chemicals. One pair, shown at the far left, was left uncoated. […] IgG was used as a model for protein capture as it behaved similar to the full-length coronavirus spike protein in plate-binding assays and is likely to have similar activity to that of bacterial coat proteins. The IgG was applied to the facemask fabric and incubated for 30 minutes prior to washing in phosphate buffered saline (PBS). Detection of the captured protein after washing was performed by applying 200 μl Gel-Code protein staining dye (Thermo Fisher Scientific, catalogue #24590) directly to the materials and incubating for one hour. Color change indicating protein capture was documented by photography.

## CCO[Si](CCCNC(=O)/C=C\C(=O)O)(OCC)OCC [CCH8845, triethoxysilylpropylmaleamic acid]
[1]
  overall capability of binding the coronavirus spike protein: bind about equally well as CCH9021, CCH4502, and CCH1053

## CCO[Si](CCCNCCN)(OCC)OCC [N-(2-aminoethyl)-3-aminopropyltriethoxysilane]
[2]
  relative binding of IgG applied at different concentrations: significantly outperformed the high-protein-binding ELISA plates

## CCO[Si](CCCNCCN)(OCC)OCC [CCH9021, N-(2-aminoethyl)-3-aminopropyltriethoxysilane]
[1]
  relative binding of SARS-CoV-2 spike glycoprotein: slightly underperformed the high-protein-binding ELISA plate
[3]
  capture of model protein (IgG) onto facemask: efficiently captured the protein onto facemask relative to the uncoated facemask
[3]; listed as NCT9021
  capture of model protein (IgG) onto facemask: appears to have captured more efficiently

## CO[Si](C)(CCCNCCCN(C)C)OC [CCH699020, 3-(N,N-dimethylaminopropyl)aminopropylmethyldimethoxysilane]
[1]
  relative binding of SARS-CoV-2 spike glycoprotein applied at different concentrations: control high-protein-binding ELISA plate significantly outperformed the chemical coating
